Experimental findings from patent publication US20120316199A1, “COMPOSITIONS AND METHODS FOR TREATING, CONTROLLING, REDUCING, OR AMELIORATING INFLAMMATORY PAIN” (priority 2011, published 2012) are described below.

The test system of experiment [1] is PGE2 in the aqueous humor. As to the kind of experiment: Prostaglandin E2 (PGE2) measurement in aqueous humor, rabbit paracentesis model. In kind it is in vivo, Rabbit (New Zealand). As to conditions: for PGE2 in aqueous humor, statistical significance versus CTR: p<0.05; for PGE2 level in aqueous humor, Mean: second paracentesis, group mean. How it is done:
Each rabbit was placed in a restraint device and tagged with the alphanumeric code. The formulations were instilled (50 μl) into the conjunctival sac of both eyes 180, 120, 90 and 30 min before the first paracentesis; then 15, 30, 90 min after the first paracentesis. To perform the first paracentesis the animals were anaesthetized by intravenous injection of 5 mg/kg Zoletil® (Virbac; 2.5 mg/kg tiletamine HCl and 2.5 mg/kg zolazepam HCl) and one drop of local anesthetic (Novesina®, Novartis) was administered to the eye. Anterior chamber paracentesis was performed with a 26 G needle attached to a tuberculin syringe; the needle was introduced into the anterior chamber through the cornea, taking care not to damage the tissues. Two hours after the first paracentesis, the animals were sacrificed with 0.4 ml Tanax® (Intervet International B.V.) and the second paracentesis was performed. About 100 μl of aqueous humor were removed at the second paracentesis. Aqueous humor was immediately split in four aliquots and stored at −80° C. until analysis. Then both eyes were enucleated and the iris-ciliary body was carefully excised, placed in polypropylene tubes, and stored at −80° C. until analysis.
For the quantitative determination of PGE2 in the aqueous humor we used the PGE2 Immunoassay kit (R&D Systems; Cat. No. KGE004; Lot. No. 240010). Eleven microliters or 16 μl of aqueous humor were diluted to 110 μl or 160 μl with the calibrator diluent solution provided with the kit. One hundred microliters of samples and of standards were load into a 96-well plate and recorded in a plate layout. Samples were treated following the assay procedure described in the kit. A microplate reader (GDV, Italy; model DV 990 B/V6) set at 450 nm (wavelength correction at 540 nm) was used for making the calibration and analyzing the samples.
Pupillary diameter, PGE2, protein, PMN, and MPO were expressed as mean±SEM. Statistical analysis was performed using one way ANOVA followed by a Newman-Keuls post hoc test. Clinical score was expressed as % of eyes and the statistical analysis was performed using Kruskal-Wallis followed by a Dunn post hoc test. P<0.05 was considered statistically significant in both cases. Prism 4 software (GraphPad Software, Inc.) was used for the analysis and graphs.

Another experiment concerns COX-2. As to the kind of experiment: COX-2 protein in IL-1β-induced human conjunctival fibroblasts (Western blot). In kind it is cell-based. To be noted: pretreated 2 h, then IL-1β 24 h; Western blot normalized to GAPDH (FIG. 7). The protocol:
Cells were washed with ice-cold PBS and lysed in cell lysis buffer (62.5 mM Tris-HCl, pH 6.8, 2% sodium dodecyl sulfate (SDS), 10% glycerol). Cells were sonicated, and centrifuged at 12,000 rpm and protein concentration was determined using the Micro BCA protein assay kit. Proteins in aliquots of cell lysate (˜20 μg protein) were separated by SDS-polyacrylamide electrophoresis (SDS-PAGE) on 10% gels and transferred to PVDF membranes. Membranes were blocked with 5% BSA and exposed to mouse anti-COX-2 antibody (Caymen). The blots were washed, and exposed to horseradish peroxidase-conjugated anti-mouse secondary antibody. After washing, blots were incubated in ECL (enhanced chemiluminescence) solutions and chemiluminescent bands were visualized using the Fluor Chem imaging system (AlphaInnotech, San Leandro, Calif.). Blots were then stripped and re-probed for glyceraldehyde 3-phosphate dehydrogenase (GAPDH) (Zymed) antibody as loading controls. The experiment was repeated 3 times. Analysis of Western blot band density for COX-2 and GAPDH in captured digital images was done using the Alpha-Innotech Chemi-Imager software (Alpha Innotech; San Leandro, Calif.). Levels of COX-2 protein were normalized to GAPDH.
In general terms: In western blotting, separated proteins are transferred to a membrane and probed.

Entries after “also recorded” stand apart in the source; their conditions may differ.

Turning to `Cc1ccc2c(NC[C@](O)(CC(C)(C)c3cc(F)cc4c3OCC4)C(F)(F)F)cccc2n1` [BOL-303242-X, mapracorat], the “PGE2 in aqueous humor, statistical significance versus CTR” value in experiment [1] (0.1% formulation) and in experiment [1] (0.5% formulation) was “statistically significant versus CTR” in each case. Moreover, the “PGE2 level in aqueous humor, Mean” value in experiment [1] (0.1% formulation) was determined as 1.452 ng/mL; in experiment [1] (0.5% formulation), 1.384 ng/mL; in experiment [1] (1% formulation) it was 2.168 ng/mL. The “Inhibition of COX-2 production by IL-1β-induced HConF” value in the experiment on COX-2 is recorded as “inhibition of COX-2 production; also recorded: successfully inhibits”.
